Data set [1] in a line: AUC (0 to t) in male ICR mouse at 10 mg/kg, po administered as single dose and measured after 24 hrs. Format: ADME, organism-based. The following applies: in vivo.
Data set [2] can be described thus: Half life in male ICR mouse at 10 mg/kg, po administered as single dose and measured after 24 hrs. Format: ADME, organism-based. The settings on record: in vivo.
For data set [3], the target named is T1, Ubiquitin carboxyl-terminal hydrolase 25 (Homo sapiens) (UniProt Q9UHP3).
T1 sequence (whole entry): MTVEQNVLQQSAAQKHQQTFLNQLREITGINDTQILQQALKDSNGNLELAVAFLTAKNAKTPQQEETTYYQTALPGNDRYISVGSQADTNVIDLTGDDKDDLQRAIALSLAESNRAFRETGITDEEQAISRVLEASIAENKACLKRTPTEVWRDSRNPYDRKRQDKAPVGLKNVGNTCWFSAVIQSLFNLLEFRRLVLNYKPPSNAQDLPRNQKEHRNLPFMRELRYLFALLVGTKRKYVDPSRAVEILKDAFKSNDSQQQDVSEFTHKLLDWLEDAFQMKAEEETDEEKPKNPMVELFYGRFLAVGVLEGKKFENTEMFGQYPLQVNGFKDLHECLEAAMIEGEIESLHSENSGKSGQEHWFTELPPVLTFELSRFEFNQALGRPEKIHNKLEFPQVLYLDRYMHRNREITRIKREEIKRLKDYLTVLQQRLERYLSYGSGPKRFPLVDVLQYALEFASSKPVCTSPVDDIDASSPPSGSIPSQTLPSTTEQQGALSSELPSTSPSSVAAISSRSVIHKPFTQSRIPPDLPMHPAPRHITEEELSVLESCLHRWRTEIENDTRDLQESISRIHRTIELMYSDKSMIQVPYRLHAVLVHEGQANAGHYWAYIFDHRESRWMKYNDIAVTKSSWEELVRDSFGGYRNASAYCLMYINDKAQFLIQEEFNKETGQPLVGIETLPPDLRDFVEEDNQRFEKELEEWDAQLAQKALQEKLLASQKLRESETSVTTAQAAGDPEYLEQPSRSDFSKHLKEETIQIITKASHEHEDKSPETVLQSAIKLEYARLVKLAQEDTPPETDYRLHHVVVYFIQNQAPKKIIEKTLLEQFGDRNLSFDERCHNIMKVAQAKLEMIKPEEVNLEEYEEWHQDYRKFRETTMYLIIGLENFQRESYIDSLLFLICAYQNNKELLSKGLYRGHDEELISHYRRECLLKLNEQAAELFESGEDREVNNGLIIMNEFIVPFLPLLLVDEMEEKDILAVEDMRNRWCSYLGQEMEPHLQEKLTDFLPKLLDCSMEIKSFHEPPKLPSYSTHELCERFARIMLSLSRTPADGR
Briefly: Inhibition of recombinant human 6His-tagged USP25 using diubiquitin as a substrate at 0 to 10 uM preincubated for 15 mins followed by substrate addition and measured after 2 hrs by SDS-PAGE analysis. The settings on record: dose 0-10 µM, time 135.0 min.

Data set [4] addresses T2, Ubiquitin carboxyl-terminal hydrolase 1/WD repeat-containing protein 48 (Homo sapiens) (UniProt O94782+Q8TAF3). Briefly: Non competitive inhibition of USP1/UAF1 complex (unknown origin) using Ub-7-amido-4-methylcoumarin as substrate at 0 to 200 nM incubated for 120 mins by Lineweaver-burk plot analysis. Format: protein-complex assay. The settings on record: dose 0-200 nM.

Data set [5] deals with T3, Ubiquitin carboxyl-terminal hydrolase 8 (Homo sapiens) (UniProt P40818).
T3 sequence (whole entry): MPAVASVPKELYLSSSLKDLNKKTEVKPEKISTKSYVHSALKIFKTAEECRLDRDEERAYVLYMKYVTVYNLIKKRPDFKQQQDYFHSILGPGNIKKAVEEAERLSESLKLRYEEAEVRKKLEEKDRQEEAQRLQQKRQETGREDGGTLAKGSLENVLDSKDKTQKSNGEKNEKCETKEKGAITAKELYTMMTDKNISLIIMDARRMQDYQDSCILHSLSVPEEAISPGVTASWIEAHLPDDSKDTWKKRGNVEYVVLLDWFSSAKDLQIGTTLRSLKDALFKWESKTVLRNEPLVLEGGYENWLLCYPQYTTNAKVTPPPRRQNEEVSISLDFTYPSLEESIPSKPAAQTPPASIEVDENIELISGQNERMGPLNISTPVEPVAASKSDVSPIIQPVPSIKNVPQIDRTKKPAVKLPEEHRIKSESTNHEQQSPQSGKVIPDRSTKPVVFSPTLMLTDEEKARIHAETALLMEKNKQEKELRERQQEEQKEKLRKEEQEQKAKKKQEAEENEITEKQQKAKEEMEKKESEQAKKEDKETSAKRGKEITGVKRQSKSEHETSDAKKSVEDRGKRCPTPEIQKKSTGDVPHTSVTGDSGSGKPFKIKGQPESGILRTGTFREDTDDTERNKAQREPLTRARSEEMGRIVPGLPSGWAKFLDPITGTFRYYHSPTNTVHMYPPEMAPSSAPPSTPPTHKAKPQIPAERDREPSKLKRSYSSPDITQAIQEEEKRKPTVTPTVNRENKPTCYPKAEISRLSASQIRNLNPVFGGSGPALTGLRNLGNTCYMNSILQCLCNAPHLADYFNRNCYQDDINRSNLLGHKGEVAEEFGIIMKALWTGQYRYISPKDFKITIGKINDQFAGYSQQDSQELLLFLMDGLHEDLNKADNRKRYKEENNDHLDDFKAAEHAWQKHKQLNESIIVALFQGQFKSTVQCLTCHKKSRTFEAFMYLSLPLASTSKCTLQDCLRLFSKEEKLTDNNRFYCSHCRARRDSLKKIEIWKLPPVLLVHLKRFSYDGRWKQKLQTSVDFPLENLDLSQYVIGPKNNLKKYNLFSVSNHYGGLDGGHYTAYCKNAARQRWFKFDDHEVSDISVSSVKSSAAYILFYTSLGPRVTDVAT
Briefly: Inhibition of recombinant human 6His-tagged USP8 using diubiquitin as a substrate at 0 to 10 uM preincubated for 15 mins followed by substrate addition and measured after 2 hrs by SDS-PAGE analysis. The following applies: dose 0-10 µM, time 135.0 min.

For data set [6], the target named is T2, Ubiquitin carboxyl-terminal hydrolase 1/WD repeat-containing protein 48 (Homo sapiens). Kind of data set: Inhibition of USP1/UAF1 in human MDA-MB-436 cells assessed as increase in Ub-PCNA level at 20 nM incubated for 24 hrs by Western blot analysis. Format: cell-based. In general terms: Immunoblotting shows a protein as a band on a membrane.
Data set [7] can be described thus: Tmax in male ICR mouse at 10 mg/kg, po administered as single dose and measured after 24 hrs. Type of data set: ADME, organism-based. The settings on record: in vivo.
In data set [8] the target is Ubiquitin carboxyl-terminal hydrolase 7 (Homo sapiens) (UniProt Q93009). Briefly: Inhibition of recombinant human 8His-tagged USP7 using diubiquitin as a substrate at 0 to 10 uM preincubated for 15 mins followed by substrate addition and measured after 2 hrs by SDS-PAGE analysis. The following applies: dose 0-10 µM, time 135.0 min.
Ubiquitin carboxyl-terminal hydrolase 7 (Homo sapiens), sequence (Q93009 whole entry, looked up): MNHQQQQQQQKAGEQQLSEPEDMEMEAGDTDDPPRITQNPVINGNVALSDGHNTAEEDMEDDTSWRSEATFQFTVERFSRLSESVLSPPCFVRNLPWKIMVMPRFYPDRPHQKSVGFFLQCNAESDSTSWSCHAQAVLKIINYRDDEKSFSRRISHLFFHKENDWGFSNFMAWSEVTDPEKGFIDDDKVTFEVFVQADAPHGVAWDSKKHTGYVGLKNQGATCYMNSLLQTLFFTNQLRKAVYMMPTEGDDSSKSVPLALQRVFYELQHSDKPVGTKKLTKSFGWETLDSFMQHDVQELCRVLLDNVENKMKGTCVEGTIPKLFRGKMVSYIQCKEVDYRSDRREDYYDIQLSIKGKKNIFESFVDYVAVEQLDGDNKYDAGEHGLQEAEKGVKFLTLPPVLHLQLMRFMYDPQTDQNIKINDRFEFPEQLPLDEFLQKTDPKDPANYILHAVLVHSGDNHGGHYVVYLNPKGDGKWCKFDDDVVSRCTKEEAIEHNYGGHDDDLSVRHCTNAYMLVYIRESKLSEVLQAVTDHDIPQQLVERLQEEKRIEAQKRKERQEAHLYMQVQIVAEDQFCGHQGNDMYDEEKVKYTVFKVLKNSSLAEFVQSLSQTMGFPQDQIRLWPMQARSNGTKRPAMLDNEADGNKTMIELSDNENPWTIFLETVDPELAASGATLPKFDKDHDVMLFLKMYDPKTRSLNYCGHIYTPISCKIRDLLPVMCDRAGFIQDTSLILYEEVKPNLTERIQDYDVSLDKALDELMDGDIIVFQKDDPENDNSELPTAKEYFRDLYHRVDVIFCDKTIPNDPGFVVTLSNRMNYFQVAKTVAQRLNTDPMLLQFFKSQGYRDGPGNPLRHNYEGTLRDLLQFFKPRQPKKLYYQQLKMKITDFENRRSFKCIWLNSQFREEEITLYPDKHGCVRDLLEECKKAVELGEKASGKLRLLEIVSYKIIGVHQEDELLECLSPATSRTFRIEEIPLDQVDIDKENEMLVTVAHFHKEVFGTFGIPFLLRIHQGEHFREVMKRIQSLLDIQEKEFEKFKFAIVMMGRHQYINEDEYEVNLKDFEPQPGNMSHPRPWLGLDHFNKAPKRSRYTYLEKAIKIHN
The next data set has as its system MDA-MB-436. Briefly: Induction of cell cycle arrest in human MDA-MB-436 cells assessed as increase in cells at S phase at 1 uM incubated for 24 hrs by PI staining based flow cytometry analysis. Type of data set: functional. (In general: In flow cytometry, cells or beads pass a laser one at a time.)
Data set [9] concerns Olaparib-resistant MDA-MB-436. Briefly: Inhibition of colony formation in human Olaparib-resistant MDA-MB-436 cell at 100 nM measured after 7 days in the presence of olaparib by SRB staining based assay relative to control. Type of data set: functional. The settings on record: Olaparib-resistant MDA-MB-436, 168 h, time 7 day. (The SRB assay estimates cell density from bound dye.)

Each structure is given as a SMILES string. The source made the active and inactive calls. The rule behind the calls is not given here.

As a reminder, the AUC(0-t) is the area under the concentration-time curve up to a stated or last time point. Read a low AUC(0-t) as low exposure. One may read the half-life as the time in which the quantity being followed falls by half. One may read the inhibition as the share of the control response that was lost under treatment. What is called Tmax is the time from dosing to the highest level. In data set [1], `COc1ncnc(C2CC2)c1-c1ncc2ccc(=O)n(Cc3ccc(-c4nc(C(F)(F)F)cn4C(C)C)cc3)c2n1` yielded an AUC(0-t) at 24 h of 35800 ng·h/mL. In addition, in [2], the half-life is 7.61 h. In addition, the inhibition result in [3], in data set [5] and in [8] was “inactive” throughout. For the same molecule, the inhibition result in [4] and in data set [6] was “Active” in each case. Also, the Tmax in [7] worked out at 0.25 h. For the same molecule, the result in the data set on MDA-MB-436 was Active. Also, the inhibition at 0.1 µM in data set [9] worked out at 50%.

Source of the values: ChEMBL document CHEMBL5579832, “Design, synthesis, and biological evaluation of pyrido[2,3-d]pyrimidin-7(8H)-one derivatives as potent USP1 inhibitors” (Eur J Med Chem, 2024).
